This note sets out measurements from ChEMBL document CHEMBL1143949, “Antiproliferative effects of 6-anilino-5-chloro-1H-benzo[d]imidazole-4,7-dione in vascular smooth muscle cells” (Bioorg Med Chem, 2008).

The structures appear in SMILES notation. Calls of active or inactive are those of the source. No cut-off for these calls is given here.

Assay [1] deals with HUVEC. Put plainly: Antiproliferative activity against HUVEC. It is filed as functional, cell-based. The conditions noted are these: Homo sapiens.
In assay [2] the test system is NIH3T3. The experiment in a line: Antiproliferative activity against mouse NIH3T3 cells. It counts as functional, cell-based.
Assay [3] in a line: Antiproliferative activity against rat aortic smooth muscle cells. It counts as functional.
Assay [4] is filed under the species Rattus norvegicus. Put plainly: Effect on PDGF and serum-induced cyclin E expression in rat aortic smooth muscle cells at 1 uM. It counts as functional.
Assay [5] concerns the target Mitogen-activated protein kinase 3 (Rattus norvegicus) (UniProt P21708). Put plainly: Activation of ERK1 phosphorylation in rat aortic smooth muscle cells at 1 uM.
Assay [6] deals with MAP kinase p38 (Homo sapiens) (UniProt O15264+Q15759+Q16539+P53778). Put plainly: Activation of p38 phosphorylation in rat aortic smooth muscle cells at 1 uM.
The species entered for assay [7] is Rattus norvegicus. Put plainly: Inhibition of PDGF and FBS-induced migration of rat aortic smooth muscle cells by transwell plate assay. It counts as functional.
The nature of assay [8]: Cell cycle arrest in rat aortic smooth muscle cells assessed as accumulation at S phase at 1 uM after 16 hrs. It is filed as functional.
Assay [9] is described as follows: Cell cycle arrest in rat aortic smooth muscle cells assessed as accumulation at G0/G1 phase at 1 uM after 16 hrs. It is filed as functional.
Assay [10] can be described thus: Cell cycle arrest in rat aortic smooth muscle cells assessed as accumulation at G2 phase at 1 uM after 16 hrs. It counts as functional.
In assay [11] the target is Mitogen-activated protein kinase 1 (Rattus norvegicus) (UniProt P63086). The experiment in a line: Activation of ERK2 phosphorylation in rat aortic smooth muscle cells at 1 uM.
Assay [12] can be described thus: Cell cycle arrest in rat aortic smooth muscle cells assessed as accumulation at G1 phase at 1 uM after 16 hrs. It counts as functional.
The species entered for assay [13] is Rattus norvegicus. Put plainly: Induction of apoptosis in rat aortic smooth muscle cells assessed as caspase 3 activation at 1 uM. It counts as functional.
The nature of assay [14]: Cell cycle arrest in rat smooth muscle cells assessed as accumulation at G2/M phase at 1 uM after 16 hrs. It is filed as functional, cell-based.

Mitogen-activated protein kinase 1 (Rattus norvegicus), sequence (P63086 whole entry): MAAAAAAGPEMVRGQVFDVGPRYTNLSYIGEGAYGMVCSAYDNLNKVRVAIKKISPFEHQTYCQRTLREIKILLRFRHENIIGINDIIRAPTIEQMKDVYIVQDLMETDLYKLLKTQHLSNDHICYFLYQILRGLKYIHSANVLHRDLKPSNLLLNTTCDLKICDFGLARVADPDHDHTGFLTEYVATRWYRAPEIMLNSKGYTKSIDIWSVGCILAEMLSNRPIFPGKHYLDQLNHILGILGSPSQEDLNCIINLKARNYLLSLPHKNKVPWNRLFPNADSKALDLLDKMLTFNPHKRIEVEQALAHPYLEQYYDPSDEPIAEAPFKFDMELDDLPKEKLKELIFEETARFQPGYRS
Mitogen-activated protein kinase 3 (Rattus norvegicus), sequence (P21708 whole entry): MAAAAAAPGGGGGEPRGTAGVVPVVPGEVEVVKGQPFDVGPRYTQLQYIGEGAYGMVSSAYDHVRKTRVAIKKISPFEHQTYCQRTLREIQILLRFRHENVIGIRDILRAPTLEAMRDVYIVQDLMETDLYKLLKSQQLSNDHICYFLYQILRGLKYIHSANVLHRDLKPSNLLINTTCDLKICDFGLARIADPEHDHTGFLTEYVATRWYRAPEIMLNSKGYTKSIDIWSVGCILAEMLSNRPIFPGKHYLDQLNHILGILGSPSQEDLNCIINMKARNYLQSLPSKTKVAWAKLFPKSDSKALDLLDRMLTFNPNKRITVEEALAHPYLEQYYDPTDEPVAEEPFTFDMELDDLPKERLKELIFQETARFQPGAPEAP

For orientation: IC50 means the midpoint of a concentration-inhibition curve. In the case of `Cc1nc2c([nH]1)C(=O)/C(=N/c1ccc(C(F)(F)F)cc1)C(Cl)=C2O`, the results for the half-inhibitory concentration (IC50) in assay [1], in assay [2] and in assay [3] were 0.6 µM, 1.1 µM and 0.6 µM, respectively.

For the molecule `Cc1nc2c([nH]1)C(=O)/C(=N/c1ccccc1)C(Cl)=C2O`, the result in [4], in assay [10] and in [12] was inactive. In addition, the result in [5], in [6], in assay [7], in assay [11] and in assay [13] was Active. Also, the 50% inhibitory concentration (IC50) in assay [1] amounted to 1.2 µM; in assay [2], 5.2 µM; in assay [3], 0.8 µM. The Activity was 23.3% in assay [8], 56.4% in [9] and 20.1% in assay [14].

For `Cc1ccc(NC2=C(Cl)C(=O)c3nc(C)[nH]c3C2=O)cc1`, the IC50 in assay [1] is 1 µM; in assay [2], 1.6 µM; in assay [3] it was 0.8 µM.

On to `Cc1nc2c([nH]1)C(=O)/C(=N/c1ccc(Cl)cc1Cl)C(Cl)=C2O`, for which the values for the IC50 in assay [1], in [2] and in assay [3] were 0.5 µM, 1.2 µM and 0.8 µM, respectively.

Consider `Cc1nc2c([nH]1)C(=O)/C(=N/c1cccc(Cl)c1Cl)C(Cl)=C2O`, for which the concentration for half-maximal inhibition (IC50) amounted to 0.3 µM in assay [1], 2.3 µM in [2] and 0.6 µM in assay [3].

With `Cc1nc2c([nH]1)C(=O)/C(=N/c1cccc(Cl)c1)C(Cl)=C2O`, the IC50 was 0.6 µM in assay [1], 1.6 µM in assay [2] and 0.9 µM in assay [3].

On to `Cc1nc2c([nH]1)C(=O)/C(=N/c1ccc(Cl)cc1)C(Cl)=C2O`, for which the IC50 in assay [1] stood at 0.8 µM; in assay [2], 1.3 µM; in assay [3], 2.8 µM.

As for `Cc1nc2c([nH]1)C(=O)/C(=N/c1cccc(Br)c1)C(Cl)=C2O`, the IC50 is 0.8 µM in assay [1], 0.8 µM in assay [2] and 1 µM in [3].

Consider `Cc1nc2c([nH]1)C(=O)/C(=N/c1ccc(F)c(F)c1F)C(Cl)=C2O`, for which the values for the 50% inhibitory concentration (IC50) in assay [1], in assay [2] and in assay [3] were 0.5 µM, 1.6 µM and 0.8 µM, respectively.

As for `Cc1nc2c([nH]1)C(=O)/C(=N/c1ccc(F)cc1)C(Cl)=C2O`, the IC50 is 1 µM in assay [1], 1.2 µM in assay [2] and 3 µM in [3].

For `Cc1nc2c([nH]1)C(=O)/C(=N/c1ccc(I)cc1)C(Cl)=C2O`, the concentration for half-maximal inhibition (IC50) in assay [1] is 2 µM; in [2] it was 0.6 µM; in [3], 1 µM.

`Cc1nc2c([nH]1)C(=O)/C(=N/c1ccc(F)cc1F)C(Cl)=C2O`: the IC50 in [1] was 1 µM; in assay [2], 0.8 µM; in [3], 1.2 µM.
